Assay results taken from publication PMC9318133 (International Journal of Molecular Sciences, 2022).
Read-outs that look alike come from different tables or passages of the source.

Experiments:
CD-1 mice [1] = experiment: Tail pinch test (acute mechanical nociception); format: in vivo, mouse
Description: The motor responses of the animal to different visual and acoustic stimuli were evaluated according to the procedure described in our previous studies. To reduce the number of animals used, mice were evaluated in functional observational tests carried out in a consecutive manner according to the following time scheme: Observation of visual object and acoustic responses and breath rate were measured at 0, 10, 30, 60, 120, 180, 240, and 300 min after injections. Visual placing response was measured at 0, 15, 35, 70, 125, 185, 245, and 305 min after injection. Core temperature was measured at 25, 45, 85, 140, 200, 260, and 320 min after injection. The tail pinch test was measured at 35, 55, 90, 145, 205, 265, and 325 min after injection, and the valuation of number of steps in the drag test was measured at 45, 75, 105, 160, 220, 280, and 340 min after injection.
The tail pinch test is used for evaluating acute mechanical nociception. A special rigid probe connected to a digital dynamometer (ZP-50N, 441-8077, Toyohashi, Aichi, Japan) was gently placed on the tail (in the distal portion), and progressive pressure was applied. When the […] flicked its tail, the pressure was stopped, and the digital instrument saved the maximum peak of weight supported (g/force). A cut-off (500 g/force) was set to avoid tissue damage. The test was repeated three times, and the final value was calculated with the average of three obtained scores.
Data are expressed in arbitrary units (visual objects and acoustic responses) and percentage of baseline (visual placing response, breath rate, and drag test). Core temperature values were expressed as the difference between control temperature (before injection) and temperature following drug administration (Δ °C). Antinociception (tail pinch tests) was calculated as percentage of maximal possible effect:EMax% = [(test − control latency)/(cut off time − control)] × 100
All data are shown as mean ± SEM of 8 independent experimental replications. […] ED50 (dose of agonist to obtain 50% of the overall mean effect) values were calculated by non-linear regression analysis of dose–response data performed using Prism software (GraphPad Prism, San Diego, CA, USA). The calculation of JWH-018 ED50 values was based on the results of previous studies. Curves have been compared, when possible, performing the F test (curve comparison). All statistical analysis was performed using the program Prism 8.0 software (GraphPad Prism, San Diego, CA, USA).

CD-1 mice [2] = experiment: Drag test (number of steps); format: in vivo, mouse
CD-1 mice [3] = experiment: Visual object response test; format: in vivo, mouse
human CB1 receptors [4] = target: T1, human CB1 receptors (Homo sapiens, UniProt P21554); experiment: Cyclic AMP assay (forskolin-stimulated) in CHO cells transfected with human CB1 receptors; format: cell-based
T1 construct: host or cells: CHO cells
Description: Chinese hamster ovarian (CHO) cells transfected with human CB1 or CB2 receptors (Perkin Elmer Life and Analytical Sciences, Melville, NY, USA) were grown adherently and maintained in Ham’s F12 containing 10% fetal bovine serum, penicillin (100 U/mL), streptomycin (100 µg/mL), and Geneticin (G418, 0.4 mg/mL) at 37 °C in 5% CO2/95% air. To obtain membranes, cells were washed with phosphate-buffered saline (PBS) and scraped off with ice-cold hypotonic buffer (5 mM Tris HCl, 2 mM EDTA, pH 7.4). The cell suspension was homogenized with a Polytron and then centrifuged for 30 min at 40,000× g. […]
The protein concentration was determined according to a Bio-Rad method with bovine serum albumin as a reference standard. Inhibitory binding constants, Ki, were calculated from the IC50 values according to the Cheng and Prusoff equation:Ki = IC50/(1 + [C*]/KD*) where [C*] is the concentration of the radioligand and KD* its dissociation constant. Functional experiments were analyzed by non-linear regression analysis using the equation for a sigmoid concentration–response curve (GraphPad Prism, San Diego, CA, USA). All the data are expressed as the mean ± SEM of three independent experiments.

human CB2 receptors [5] = target: T2, human CB2 receptors (Homo sapiens, UniProt P34972); experiment: Cyclic AMP assay (forskolin-stimulated) in CHO cells transfected with human CB2 receptors; format: cell-based
T2 construct: host or cells: CHO cells
Description: CHO cells transfected with human CB1 or CB2 receptors were washed with PBS, detached with trypsin, and centrifuged for 10 min at 200× g.

CD-1 mice [6] = experiment: Acoustic response (startle reflex) test; format: in vivo, mouse
CD-1 mice [7] = test system: CD-1 mice; set-up: method as in PMID 25769232, PMID 25987201; conditions: ED50 + SEM, data elaborated from ref [33],[34]; cited from earlier work
human CB1 receptors [8] = target: T1, human CB1 receptors; set-up: method as in PMID 27527584, PMID 25769232; conditions: read-out: hCB1 CHO Cells IC50; cyclic AMP experiments; mean ± SEM; data elaborated from ref [15],[33]; cited from earlier work
CD-1 mice [9] = test system: CD-1 mice; set-up: method as in PMID 25769232, PMID 25987201; conditions: ED50 + SEM, data elaborated from ref [33],[34]; cited from earlier work; remark: listed apart in the source
human CB2 receptors [10] = target: T2, human CB2 receptors; set-up: method as in PMID 27527584, PMID 25769232; conditions: read-out: hCB2 CHO Cells IC50; cyclic AMP experiments; mean ± SEM; data elaborated from ref [15],[33]; cited from earlier work
CD-1 mice [11] = test system: CD-1 mice; set-up: method as in PMID 25769232, PMID 25987201; conditions: ED50 + SEM, data elaborated from ref [33],[34]; cited from earlier work; remark: listed apart in the source
[12] = 0.01–30 mg/kg i.p., monitored over 5 h
[13] = Mus musculus, ip, mice, ED50 + SEM

T1 sequence (P21554 whole entry): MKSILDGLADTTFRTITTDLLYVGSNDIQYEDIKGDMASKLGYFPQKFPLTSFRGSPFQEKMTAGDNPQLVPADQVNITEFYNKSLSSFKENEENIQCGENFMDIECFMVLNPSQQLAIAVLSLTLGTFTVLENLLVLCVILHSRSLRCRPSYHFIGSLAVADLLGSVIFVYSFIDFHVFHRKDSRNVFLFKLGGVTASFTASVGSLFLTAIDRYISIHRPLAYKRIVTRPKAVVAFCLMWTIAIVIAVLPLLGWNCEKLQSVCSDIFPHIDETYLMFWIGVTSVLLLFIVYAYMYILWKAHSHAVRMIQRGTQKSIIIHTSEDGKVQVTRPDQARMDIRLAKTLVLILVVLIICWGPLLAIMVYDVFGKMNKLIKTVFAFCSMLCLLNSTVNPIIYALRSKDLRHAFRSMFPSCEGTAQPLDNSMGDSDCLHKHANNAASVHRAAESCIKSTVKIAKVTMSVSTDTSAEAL
T2 sequence (P34972 whole entry): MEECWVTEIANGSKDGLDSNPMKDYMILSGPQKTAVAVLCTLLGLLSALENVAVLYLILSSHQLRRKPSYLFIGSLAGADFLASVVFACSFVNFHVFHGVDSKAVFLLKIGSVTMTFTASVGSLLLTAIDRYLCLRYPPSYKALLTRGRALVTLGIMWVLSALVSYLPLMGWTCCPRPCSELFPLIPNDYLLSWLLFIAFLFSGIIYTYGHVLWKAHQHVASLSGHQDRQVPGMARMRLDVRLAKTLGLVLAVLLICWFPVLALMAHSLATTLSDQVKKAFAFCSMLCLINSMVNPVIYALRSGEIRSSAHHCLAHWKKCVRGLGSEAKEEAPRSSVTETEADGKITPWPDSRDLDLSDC

SMILES | effect on threshold to acute mechanical pain stimulus (tail pinch) (CD-1 mice [1]; [12]) | ED50 (CD-1 mice [1]; [13]) [mg/kg] | lowest dose from which increased pain threshold to acute mechanical stimulus was observed (CD-1 mice [1]; i.p.) [mg/kg] | time of maximum analgesic effect (tail pinch) (CD-1 mice [1]; maximum dose of 30 mg/kg i.p.) [min] | effect on motor activity in the drag test at low dose (CD-1 mice [2]; 0.1 mg/kg i.p., lasted up to 280 min) | effect on motor activity in the drag test at higher doses (CD-1 mice [2]; 6–30 mg/kg i.p.) | ED50 (CD-1 mice [2]; Mus musculus, ip, mice, ED50 + SEM, calculated on inhibitory effect of the highest doses) [mg/kg] | effect on visual object response (CD-1 mice [3]; [12]) | ED50 (CD-1 mice [3]; Mus musculus, ip, mice, ED50 + SEM, non-linear regression) [mg/kg] | IC50 (human CB1 receptors [4]) [µM] | IC50 (human CB2 receptors [5]) [µM] | effect on acoustic response (CD-1 mice [6]; [12]) | ED50 (CD-1 mice [6]; [13]) [mg/kg] | ED50 Visual Object (CD-1 mice [7]) [mg/kg] | IC50 (human CB1 receptors [8]) [µM] | ED50 Startle Reflex (CD-1 mice [9]) [mg/kg] | IC50 (human CB2 receptors [10]) [µM] | ED50 Core Temperature (CD-1 mice [11]) [mg/kg]
CCCCCn1cc(Cc2cccc3ccccc23)c2ccccc21 [JWH-175, 3-(1-naphthalenylmethyl)-1-pentyl-1H-indole] | dose-dependently increased the threshold to acute mechanical pain stimulus | 4 ± 0.12 | 0.1 | 265 | facilitated | inhibited | 10.9 ± 0.12 | dose-dependently reduced the visual object response | 9.6 ± 0.02 | 0.072 ± 0.005 | 0.864 ± 0.061 | dose-dependently reduced | 4 ± 0.03 | – | – | – | – | –
CCCCCn1cc(C(=O)c2cccc3ccccc23)c2ccccc21 [JWH-018, 1-naphthalenyl(1-pentyl-1H-indol-3-yl)-methanone] | – | – | – | – | – | – | – | – | – | – | – | – | – | 0.32 ± 0.06 | 0.0137 ± 0.00104 | 0.53 ± 0.05 | 0.0116 ± 0.00097 | 1.7 ± 0.04
